Data from paper PMC8752738, “A propolis-derived small molecule ameliorates metabolic syndrome in obese mice by targeting the CREB/CRTC2 transcriptional complex” (Nature Communications, 2022).
Values joined by “and” are separate entries in the source; they are usually repeats but may differ in a detail not shown here. Identical values can stand only once.

Columns and labels:
[1] = test system: AMPK; assay: Phospho-AMPK immunoblot in primary hepatocytes; assay type: cell-based, mouse; conditions: for relative p-AMPK protein, mean: N=3 (0 μM = 1); for relative p-AMPK protein: Supp. fig.3e, individual replicates
Protocol: (§1) Immunoblotting and immunoprecipitation assays were performed as previously described, with antibodies recognizing CREB, Ser133-P-CREB, AMPK, P-AMPK, AKT, P-AKT (Cell Signaling), PGC-1α (Merck), CRTC2 (Calbiochem), PCK1 (Santa Cruz), SREBP1 (Santa Cruz), SREBP2 (BD), HA (Convance), LXRα (Santa Cruz), FLAG (Sigma), GST (Covance), HIS (Abmart), GAPDH (AOGMA), α-TUBULIN (Abmart), β-ACTIN (Abmart), and other antibodies (Supplementary Table 3). For immunostaining assays, primary cultured hepatocytes seeded on coverslips were fixed with 4% paraformaldehyde for 20 min, permeabilized with 0.3% Triton X-100 in PBS, and then blocked by 5% normal goat serum and 0.3% Triton X-100 in PBS, followed by incubation with anti-CREB (1:1000), anti-P-CREB (1:1000), or anti-HA (1:3000) antibodies for 1 h at 4 °C. Slides were then washed, and after washing, slides were incubated with fluorochrome-conjugated secondary antibodies (Invitrogen). Slides were then washed and mounted with Vectashield mounting media containing 4, 6-diamidino-2-phenylindole (DAPI).
1 Supplementary Figure 3. APC inhibits gluconeogenesis independent of CREB-phosphorylation,
2 cell toxin or AMPK activation. […]
20 e) Phosphate-AMPK level in primary hepatocytes incubated with APC or metformin (MET) at
21 indicated concentrations (0–200 μM) for 30 minutes (top). Relative P-AMPK normalized by AMPK is […]

[2] = Cholesterol, TG, NEFA and glycerol in serum and liver; assay type: in vivo, mouse; set-up: liver NEFA, Mean 2 (group mean) / Plasma VLDL cholesterol in db/db mice (VLDL-C) / Plasma VLDL cholesterol in db/db mice, group mean / TC in liver_CT2KO (total cholesterol in the liver of CRTC2-KO) / TC in liver_WT (total cholesterol in the liver) / TC in liver_WT, mean / TC in liver_WT, Mean Diff. VEH vs. drug / TC in liver_CRTC2KO, mean / TC in liver_CRTC2KO, Mean Diff. VEH vs. drug: unit not given here; conditions: for Plasma total cholesterol, Mean 1 (drug group): N 6
Protocol: Serum total cholesterol (TC), LDL cholesterol (LDL-C), and HDL cholesterol (HDL-C) levels were detected using commercial kits (Beihua, China), and serum VLDL protein was determined by ELISA (Jiancheng, China).
The plasma TG and NEFA levels were determined using corresponding kits from Beihua (China) and WAKO (Japan), respectively. The TG levels of liver and WAT were tested by TG kit (Applygene, China). The NEFA in the liver and WAT were extracted by chloroform–methanol and then subjected to NEFA assay (WAKO).

[3] = test system: tissue protein levels; assay: Immunoblotting of tissue proteins in treated mice; assay type: in vivo, mouse; conditions: for Relative LXRa/ACTIN, Mean Diff. (VEH vs. treated) / Relative LXRa/ACTIN, Mean 2 (group mean) / Relative LXRa/ACTIN: Figure 7h; for Relative LXRa/ACTIN, Mean 2 (group mean): N2 = 4; for Relative LXRa/ACTIN: single replicates
Protocol: as §1

[4] = target: T1, CREB-CRTC2 interaction (Homo sapiens, UniProt P16220); assay: CREB–CRTC2 mammalian two-hybrid assay (GAL4-Luc reporter); assay type: cell-based
T1 construct: expressed in transfected cells; host or cells: HEK293T
T1 sequence (P16220 whole entry, the tested form may be a part): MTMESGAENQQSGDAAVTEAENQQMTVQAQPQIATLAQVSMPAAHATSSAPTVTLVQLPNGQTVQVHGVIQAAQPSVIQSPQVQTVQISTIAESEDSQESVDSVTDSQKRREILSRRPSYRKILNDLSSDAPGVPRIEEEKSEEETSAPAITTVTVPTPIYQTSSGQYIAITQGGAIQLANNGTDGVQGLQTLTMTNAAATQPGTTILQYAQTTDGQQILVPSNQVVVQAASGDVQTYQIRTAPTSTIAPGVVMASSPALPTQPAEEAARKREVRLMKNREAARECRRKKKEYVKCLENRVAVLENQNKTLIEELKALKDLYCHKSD

[5] = target: T2, HIS-CREB protein (Homo sapiens, UniProt P16220); assay: Isothermal titration calorimetry; assay type: binding
T2 construct: made in house
T2 sequence (P16220 whole entry): as the sequence (P16220 whole entry, the tested form may be a part) above
Protocol: Isothermal titration calorimetry was performed using a MicroCal iTC200 calorimeter (Freiburg, Germany). The purified HIS-CREB protein and APC were diluted in buffer (PBS with 500 mM NaCl and 10% glycine, pH 8.0). APC solution was titrated by injection of HIS-CREB. The originally released heat from molecules binding was recorded and analyzed by Origin9 software (Origin Lab) supplied with the instrument.

[6] = 200 μM (first of two lines printed 200)
[7] = 200 μM (second of two lines printed 200)
[8] = liver, CRTC2KO mice, drug minus VEH
[9] = liver, CRTC2KO mice, group mean, N=4
[10] = liver, WT mice, group mean, N=4

CN(C)C(=N)NC(=N)N [MET]
relative p-AMPK protein, mean ([1]; 5 μM): 1.096 | relative p-AMPK protein, mean ([1]; 10 μM): 1.224 | relative p-AMPK protein, mean ([1]; 100 μM): 1.394 | relative p-AMPK protein, mean [1, 6]: 1.978 | relative p-AMPK protein, mean [1, 7]: 2.005 | relative p-AMPK protein ([1]; 5 μM): 1.169 (2×) and 0.9483 | relative p-AMPK protein ([1]; 10 μM): 1.256 and 1.249 and 1.166 | relative p-AMPK protein ([1]; 100 μM): 1.432 and 1.326 and 1.423 | relative p-AMPK protein [1, 6]: 2.049 and 1.941 and 1.943 | relative p-AMPK protein [1, 7]: 1.966 and 1.951 and 2.098 | relative p-AMPK protein, column mean ([1]; mean over all concentrations, 0 μM included): 1.449 | Plasma total cholesterol, Mean Diff. vs. VEH ([2]; Figure 6h, CRTC2KO mice): 28.04 mg/dL | Plasma total cholesterol, Mean 1 (drug group) ([2]; Figure 6h, CRTC2KO mice, group mean): 246.8 mg/dL | TC in plasma_CRTC2KO (plasma total cholesterol) ([2]; Figure 6h, CRTC2KO mice, individual mice): 232.014 mg/dL and 251.349 mg/dL and 216.160 mg/dL and 260.242 mg/dL and 252.895 mg/dL and 268.363 mg/dL | Plasma total cholesterol, Mean Diff. vs. VEH ([2]; Figure 6h, WT mice): -63.12 mg/dL | Plasma total cholesterol, Mean 1 (drug group) ([2]; Figure 6h, WT mice, group mean): 215.4 mg/dL | TC in plasma_WT (plasma total cholesterol) ([2]; Figure 6h, WT mice, individual mice): 184.451 mg/dL and 247.868 mg/dL and 232.401 mg/dL and 156.610 mg/dL and 233.948 mg/dL and 237.041 mg/dL | TC in liver_CRTC2KO, Mean Diff. VEH vs. drug ([2]; liver, CRTC2-KO mice, VEH minus drug): -4.203 | TG in liver_CT2KO, Mean Diff. vs. VEH ([2]; liver, CRTC2-KO mice, drug minus VEH): 5.139 mg/g protein | TC in liver_CRTC2KO, mean ([2]; liver, CRTC2-KO mice, group mean (Mean 2), N=6): 55.56 | TG in liver_CT2KO, mean ([2]; liver, CRTC2-KO mice, group mean, N=6): 20.79 mg/g protein | TG in liver_CT2KO ([2]; liver, CRTC2-KO mice, individual animals, Supp.fig.5c): 21.7349 mg/g protein and 16.8626 mg/g protein and 22.9286 mg/g protein and 13.5919 mg/g protein and 26.3275 mg/g protein and 23.2939 mg/g protein | TC in liver_WT, Mean Diff. VEH vs. drug ([2]; liver, WT mice, VEH minus drug): 4.549 | TG in liver_WT, Mean Diff. vs. VEH ([2]; liver, WT mice, drug minus VEH): -8.336 mg/g protein | TC in liver_WT, mean ([2]; liver, WT mice, group mean (Mean 2), N=6): 55.81 | TG in liver_WT, mean ([2]; liver, WT mice, group mean, N=6): 11.62 mg/g protein | TG in liver_WT ([2]; liver, WT mice, individual animals, Supp.fig.5c): 22.699 mg/g protein and 6.6923 mg/g protein and 14.0154 mg/g protein and 7.7587 mg/g protein and 8.152 mg/g protein and 10.4144 mg/g protein | Relative LXRa/ACTIN, Mean Diff. (VEH vs. treated) ([3]; CRTC2KO): 0.07206 | Relative LXRa/ACTIN, Mean 2 (group mean) ([3]; CRTC2KO): 0.7321 | Relative LXRa/ACTIN ([3]; CT2KO): 0.7043 and 0.6782 and 0.684 and 0.8619 | Relative LXRa/ACTIN, Mean Diff. (VEH vs. treated) ([3]; WT): 0.1998 | Relative LXRa/ACTIN, Mean 2 (group mean) ([3]; WT): 0.6958 | Relative LXRa/ACTIN ([3]; WT): 0.7209 and 0.7206 and 0.6711 and 0.6705 | SREBP1/ACT IN CT2KO, Mean Diff. vs. VEH [3, 8]: -0.1882 | SREBP2/ACT IN CT2KO, Mean Diff. vs. VEH [3, 8]: -0.07501 | SREBP1/ACT IN CT2KO, mean [3, 9]: 0.4991 | SREBP2/ACT IN CT2KO, mean [3, 9]: 0.6794 | SREBP1/ACT IN CT2KO (related SREBP1 protein levels in CRTC2KO liver) ([3]; liver, CRTC2KO mice, individual replicates, Supp.fig.5a left): 0.5276 and 0.4764 and 0.5154 and 0.4771 | SREBP2/ACT IN CT2KO (related SREBP2 protein levels in CRTC2KO liver) ([3]; liver, CRTC2KO mice, individual replicates, Supp.fig.5a right): 0.7097 and 0.717 and 0.6322 and 0.6586 | SREBP1/ACT IN WT, Mean Diff. vs. VEH ([3]; liver, WT mice, drug minus VEH): -0.1949 | SREBP2/ACT IN WT, Mean Diff. vs. VEH ([3]; liver, WT mice, drug minus VEH): -0.2245 | SREBP1/ACT IN WT, mean [3, 10]: 0.7683 | SREBP2/ACT IN WT, mean [3, 10]: 0.8001 | SREBP1/ACT IN WT (related SREBP1 protein levels in liver) ([3]; liver, WT mice, individual replicates, Supp.fig.5a left): 0.8628 and 0.72 and 0.7576 and 0.7329 | SREBP2/ACT IN WT (related SREBP2 protein levels in liver) ([3]; liver, WT mice, individual replicates, Supp.fig.5a right): 0.85 and 0.793 and 0.7497 and 0.8079

CCOC(=O)/C=C/c1ccc(O)cc1 [P4, (E)-p-hydroxycinnamic acid ethyl ester]
reporter activity of CREB–CRTC2 two-hybrid assay [4]: nor decreased CREB/CRTC2 interaction | direct binding with HIS-CREB proteins (ITC) [5]: neither directly bound with HIS-CREB proteins
